Data taken from US4822775A, “Phenyl substituted dipeptide amides” (priority 1986, dated 1989).
Where two headings read alike, the source gives them in different places.

Assays:
mice = experiment: Writhing assay (phenylbenzoquinone-induced writhing); assay type: in vivo, mouse; conditions: 30 min before phenylbenzoquinone i.p.; for Writhing Mouse Oral: screening dose 10 mg/kg p.o. (intragastric); for Writhing Mouse Subc.: screening dose 10 mg/kg s.c.
Protocol: Writhing assay. Male Charles River albino mice (CD-1/HAM/1LR) weighing between 20 and 30 grams were used. Thirty minutes after subcutaneous or intragastric administration of the test compound (0.1 mg/10 gram body weight), 0.025% (w/v) phenylbenzoquinone was injected intraperitoneally (0.1 ml/10 gram body weight). Five minutes later, each mouse was placed in a large glass beaker and the number of writhes that occurred in the subsequent ten minutes is counted. A writhe consisted of dorsoflexion of the back, extension of the hindlimbs, and strong contraction of the abdominal musculature. The test compounds was considered to have produced analgesia in a mouse if the number of writhes elicited by phenylbenzoquinone was equal to or less than one-half the median number of writhes recorded for the saline-treated group that day. The results were expressed as the number of mice (out of a possible ten) in which the test compound produced analgesia.

[1] = molecular target: opiate receptors isolated from rat brain; assay type: binding; conditions: for IC50: read-out: Opiate Binding, IC50
rat = conditions: injected directly into the brain of the rat; cited from earlier work
opiate activity = conditions: cited from earlier work
[2] = 1 nM 3H-Naloxone, rat brain receptor membranes, standard screening dose 10^-5 molar (words such as Inactive refer to it)
[3] = 1 nM 3H-Naloxone, rat brain receptor membranes, standard screening dose 10^-5 molar (words such as Inactive refer to it), monohydrochloride

Compound | Writhing Mouse Oral (mice) | Writhing Mouse Subc. (mice) | also measured
2,6-dimethyl-L-tyrosyl-N-[2-(2-thienyl)ethyl]-D-alaninamide, monohydrochloride [Example 39] | Inactive | Inactive | –
2,6-dimethyltyrosyl-N-(2,3-dihydro-1H-inden-2-yl)-D-alaninamide, monohydrochloride [Example 24] | Inactive | Lethal | IC50 [1, 2]: 860 nM
2,6-dimethyltyrosyl-N-(6-methoxy-6-oxohexyl)-D-alaninamide, monohydrochloride [Example 5] | – | Inactive | IC50 [1, 3]: 10000 nM
2,6-dimethyltyrosyl-N-(6-methoxy-6-oxohexyl)-D-alaninamide, monohydrochloride [Example 7] | Inactive | Inactive | IC50 [1, 3]: 1000 nM
2,6-dimethyltyrosyl-N-[3-(2-thienyl)propyl]-D-alaninamide, monohydrochloride [Example 46] | – | – | IC50 [1, 3]: 220 nM; Writhing Mouse Oral (mice; monohydrochloride, 10 mg/kg): Inactive; Writhing Mouse Subc. (mice; monohydrochloride, 10 mg/kg): Inactive
2,6-dimethyltyrosyl-N-[3-(2-thienyl)propyl]-D-alaninamide, monohydrochloride [Example 47] | – | – | IC50 [1, 3]: 2.9 nM; Writhing Mouse Oral (mice; monohydrochloride, 10 mg/kg): Active; Writhing Mouse Subc. (mice; monohydrochloride, 10 mg/kg): Active
2,6-dimethyltyrosyl-N-[3-(3-thienyl)-2E-propenyl]-D-alaninamide, monohydrochloride [Example 58] | Inactive | Active | IC50 [1, 2]: 1 nM
2,6-dimetyltyrosyl-N-[3-(2-thienyl)-2E-propenyl]-D-alaninamide, monohydrochloride [Example 52] | Inactive | Active | –
2-(2R-amino-1-oxopropyl)-1,2,3,4-tetrahydroisoquinoline, monohydrochloride [Example 32] | Active | Inactive | Opiate Binding, IC50 [1, 2]: Inactive
Cc1cc(O)cc(C)c1CC(NC(=O)OC(C)(C)C)C(=O)N[C@H](C)C(=O)NCCSc1ccccc1 (mixture of isomers) [Example 108, N-[(1,1-dimethylethoxy)carbonyl]-2,6-dimethyl-DL-tyrosyl-N-[2-(phenythio)ethyl]-D-alaninamide] | Inactive | Active | IC50 [1]: 8.2 nM
Cc1cc(O)cc(C)c1CC(NC(=O)OC(C)(C)C)C(=O)N[C@H](C)C(=O)NCCOc1ccccc1 (mixture of isomers) [Example 115, N-[(1,1-dimethylethoxy)carbonyl]O2,6-dimethyl-DL-tyrosyl-N-(2-phenoxyethyl)-D-alaninamide] | Active | Active | IC50 [1]: 8.7 nM
Cc1cc(O)cc(C)c1C[C@H](N)C(=O)N[C@@H](C)C(=O)N1CCCc2ccccc21.Cl (relative stereo) [Example 29, αS-R*-amino-4-hydroxy-2,6-dimethyl-N-[1S*-methyl-2-oxo-2-(1,2,3,4-tetrahydro-1-quinolinyl)ethyl]benzenepropanamide, monohydrochloride] | Inactive | Inactive | IC50 [1]: 4900 nM
Cc1cc(O)cc(C)c1C[C@H](N)C(=O)N[C@H](C)C(=O)N1CCc2ccccc2C1.Cl (single isomer, unassigned) [Example 35, α-amino-4-hydroxy-2,6-dimethyl-N-[1R-methyl-2-oxo-2-(1,2,3,4-tetrahydro-2-isoquinolinyl)ethyl]benzenepropanamide, monohyrochloride] | Active | Active | IC50 [1, 2]: 14 nM
C[C@@H](NC(=O)OCc1ccccc1)C(=O)NC1Cc2ccccc2C1 [Example 20, phenylmethyl [2-[(2,3-dihydro-1H-inden-2-yl)amino]-1R-methyl-2-oxoethyl]carbamate] | Inactive | Active | Opiate Binding, IC50 [1, 2]: Inactive
C[C@@H](N)C(=O)NC1Cc2ccccc2C1 [Example 21] | Inactive | Active | Opiate Binding, IC50 [1]: Inactive
C[C@@H](NC(=O)OCc1ccccc1)C(=O)N1CCCc2ccccc21 [Example 25, phenylmethyl [1R-methyl-2-oxo-2-(1,2,3,4-tetrahydro-1-quinolinyl)ethyl]carbamate] | Inactive | Inactive | IC50 [1, 2]: 80000 nM
C[C@@H](N)C(=O)NCCCc1cccs1 [Example 44, 2R-amino-N-[3-(2-thienyl)propyl]propanamide] | Active | Active | Opiate Binding, IC50 [1, 2]: Inactive
COc1ccc(CCCNC(=O)[C@@H](C)N)cc1 [Example 60, αR-amino-N-[3-(4-methoxyphenyl)propyl]propanamide] | Active | Active | IC50 [1, 2]: 36000 nM
Cc1cc(O)cc(C)c1C[C@H](N)C(=O)N[C@H](C)C(=O)NCCC(c1ccccc1)c1ccccc1.Cl [Example 73, 2,6-dimethyltyrosyl-N-(3,3-diphenylpropyl)-D-alaninamide, monohydrochloride] | Inactive | Active | IC50 [1, 2]: 0.3 nM
Cc1cc(O)cc(C)c1C[C@H](N)C(=O)N[C@H](C)C(=O)NCCSc1ccccc1.Cl [Example 109, 2,6-dimethyltyrosyl-N-[2-(2-(phenylthio)ethyl]-D-alaninamide, monohydrochloride] | – | – | IC50 [1]: 0.4 nM
Cc1cc(O)cc(C)c1C[C@H](N)C(=O)N[C@H](C)C(=O)NCCSc1ccccc1.Cl [Example 109] | Inactive | Active | –
methionine enkephalin | – | – | analgesic activity (rat): only weak, fleeting analgesic activity; activity in bioassays for opiate activity (opiate activity): highly active
α-amino-4-hydroxy-2,6-dimethyl-N-[1R-methyl-2-oxo-2-(1,2,3,4-tetrahydro-1-quinolinyl)ethyl]benzenepropanamide, monohydrochloride [Example 30] | Inactive | Inactive | –
α-amino-4-hydroxy-2,6-dimethyl-N-[1R-methyl-2-oxo-2-(1,2,3,4-tetrahydro-2-isoquinolinyl)ethyl]benzenepropanamide, monohydrochloride [Example 37] | Inactive | Inactive | IC50 [1, 2]: 1400 nM
